Test results as given in patent US20230372433A1, “NANOPARTICLE FOR ANTI-CANCER PEPTIDES AND USES THEREOF” (KING'S COLLEGE LONDON, priority 2020, published 2023).

Experiments:
[1] = Tryptophan fluorescent binding assay, 3POPC/1POPG vesicles; conditions: 50 μM peptide, PBS pH 7.4
Protocol: (§1) In brief, 50 μM peptides were fixed and incubated with titrated POPC vesicles (black) or 3POPC/1POPG vesicles (grey) at concentrations of 0, 12.5, 25, 50, 100, 250, 500, 1000, 2500, and 5000 μM in phosphate buffered saline (1X, pH 7.4). The lipid concentration that causes 50% peptide binding was determined using a tryptophan fluorescent binding assay and the values are shown as lipid per peptide.
(§2) The lipids 1-palmitoyl-2-oleoyl-sn-glycero-3-phosphocholine (POPC), 1-palmitoyl-2-oleoyl-snglycero-3-phospho-(1′-rac-glycerol) (POPG) were purchased from Avanti Polar Lipids and dissolved in chloroform. Large unilamellar vesicles (LUVs) were produced by extrusion through 100 nm pore filter using an extruder and filters purchased from Avanti Polar Lipids.
(§3) Peptides (50 μM) and POPC/POPG LUVs (600 μM) were prepared in 10 mM phosphate buffer (pH 7.0). The solutions were incubated and measured after 60 minutes. Excitation was fixed at 280 nm (slit 9 nm) and emission was collected from 300 to 450 nm (slit 9 nm). The spectra were recorded using a Synergy H1 Hybrid Multi-Mode Reader (FIG. 3A) and Cytation™ 5 Cell Imaging Multi-Mode Reader (FIG. 2) from BioTek and were averaged over 3 scans.
(§4) Table 3 illustrates the lipid concentration-induced 50% peptide binding onto a liposome. 50 μM peptide was fixed and incubated with titrated lipid (POPC vesicles or 3POPC/1POPG vesicles) at concentrations of 0, 12.5, 25, 50, 100, 250, 500, 1000, 2500, and 5000 μM in phosphate buffered saline (1X, pH 7.4). The lipid concentration that causes 50% peptide binding was determined using tryptophan fluorescent binding assay and the values are shown as lipid per peptide. IN-terminus is free, C-terminus: —W—NH2.

[2] = Tryptophan fluorescent binding assay, POPC vesicles; conditions: 50 μM peptide, PBS pH 7.4
Protocol: as §1, §2, §3, §4

[3] = system: U2OS (human bone osteosarcoma); assay: MTT cytotoxicity assay, U2OS; format: cell-based; conditions: 72 hr
[4] = ANTS/DPX liposome leakage assay, POPC vesicles; format: biochemical; conditions: 0.5 mM vesicles
Protocol: (§5) In brief, 0.5 mM POPC vesicles (grey) or POPC:POPG vesicles (ratio 3:1, black) were incubated with peptide concentrations of 0, 0.02, 0.04, 0.08, 0.16, 0.32, 0.64, 1.25, 2.5, 5, 10, and 20 μM in each A) hydrochloric acid-adjusted phosphate buffered saline (1X, pH 4.8) and B) phosphate buffered saline (1X, pH 7.4).
as §2
(§6) 5 mM ANTS (8-aminonaphthalene-1,3,6-trisulfonic acid, disodium salt) and 12.5 mM DPX (p-xylene-bis-pyridinium bromide) were entrapped in 0.1 μm diameter extruded vesicles with lipids. Gel filtration chromatography using a Sephadex G-100 (GE Healthcare Life Sciences Inc) was used to remove external free ANTS/DPX from LUVs with entrapped contents. LUVs were diluted to 0.5 mM and used to measure the leakage activity by addition of aliquots of peptides. Leakage was measured after 3 h incubation. 10% Triton was used as the positive control to measure the maximum leakage of the vesicle. Fluorescence emission spectra were recorded using excitation and emission wavelength of 350 nm and 510 nm for ANTS/DPX using a BioTek Synergy H1 Hybrid Multi-Mode Reader.
(§7) Table 4 illustrates peptide concentration-induced 50 ANTS/DPX liposome leakage. 0.5 mM POPC and 3POPC/1POPG vesicles were fixed and incubated with titrated peptide concentration (0, 0.02, 0.04, 0.08, 0.16, 0.32, 0.64, 1.25, 2.5, 5, 10, and 20 μM) each in phosphate buffered saline (1X, pH 7.4) and hydrochloric acid-adjusted phosphate buffered saline (1X, pH 4.8). The values are shown as lipid per peptide. IN-terminus is free, C-terminus: —W—NH2.

[5] = system: MCF-10A (human breast epithelial cell); assay: cells; conditions: read-out: IC50 MCF-10A; 72 hr, MTT
From the text: HMLER (human mammary endothelial cancer cells), HMLER-shEcad (human mammary endothelial cancer stem cells), and MCF-10A (healthy human mammary endothelial) cells were maintained in Mammary Epithelial Cell Growth Medium (MEGM) with supplements and growth factors: bovine pituitary extract (BPE), hydrocortisone, human epidermal growth factor (hEGF), insulin, and gentamicin/amphotericin-B. HEK293T (human embryonic kidney cell), and U2OS (homo sapiens bone osteosarcoma) cells were maintained in Dulbecco's Modified Eagle's Medium (DMEM) with a final concentration of 10% fetal bovine serum. The cells were grown in T75 flask at 310 K in a humidified atmosphere containing 5% CO2.
The colourimetric MTT (3-(4,5-dimethylthiazol-2-yl)-2,5-diphenyltetrazolium bromide) assay was used to determine the toxicity of the anti-cancer peptides and conventional anti-cancer drugs. 5×10^3 cells were seeded in each well of a 96-well microplate. The cells were incubated overnight. Elevated concentrations of the compounds (0, 0.1, 0.2, 0.4, 0.8, 1.6, 3.1, 6.3, 12.5, 25, 50 and 100 μM) were added and incubated for 72 hr with a total volume 200 μL. The stock solutions of the compounds were prepared as 5 mM solutions in DMSO and diluted using media or in pure water. The final concentration of DMSO in each well was either 0.5% or 0% and this amount was present in the untreated control. After 72 hr, 20 μL of a 4 mg/mL solution of MTT in PBS was added to each well, and the plate was incubated for an additional 4 hr. The MEGM/MTT mixture was aspirated and 100 μL of DMSO was added to dissolve the resulting purple formazan crystals. The absorbance of the solutions in each well was read at 550 nm wavelength. Absorbance values were normalized to either DMSO-containing or non DMSO-containing control wells and plotted as concentration of test compound versus % cell viability. ICso values were interpolated from the resulting dose dependent curves.
The peptides were screened against several different human cell lines and their cytotoxicity were determined. Cell lines utilised include MCF-10A (human breast epithelial cell), HMLER (human breast cancer bulk cell), HMLER-shEcad (human breast cancer stem cell), HEK293T (human embryonic kidney cell), and U2OS (human bone osteosarcoma).

[6] = system: HMLER (human breast cancer bulk cell); assay: MTT cytotoxicity assay, HMLER; format: cell-based; conditions: 72 hr, MTT; read-out: IC50 HMLER
[7] = system: HEK293T (human embryonic kidney cell); assay: MTT cytotoxicity assay, HEK293T; format: cell-based; conditions: 72 hr, MTT; read-out: IC50 HEK293T
[8] = system: HMLER-shEcad (human breast cancer stem cell); assay: MTT cytotoxicity assay, HMLER-shEcad; format: cell-based; conditions: 72 hr, MTT; read-out: IC50 HMLER-shEcad
[9] = ANTS/DPX liposome leakage assay, 3POPC/1POPG vesicles; format: biochemical; conditions: 0.5 mM vesicles
Protocol: as §5, §2, §6, §7

Sequence	Lipid Concentration-induced 50% Peptide Binding (L/P) 3POPC/1POPG Vesicle [1]	Lipid Concentration-induced 50% Peptide Binding (L/P) POPC Vesicle [2]	IC50 [3]	Peptide Concentration-induced 50% ANTS/DPX leakage at pH 4.8 (L/P) POPC Vesicle [4]	Peptide Concentration-induced 50% ANTS/DPX leakage at pH 7.4 (L/P) POPC Vesicle [4]	IC50 [5]	IC50 [6]	IC50 [7]	IC50 [8]	Peptide Concentration-induced 50% ANTS/DPX leakage at pH 4.8 (L/P) 3POPC/1POPG Vesicle [9]	Peptide Concentration-induced 50% ANTS/DPX leakage at pH 7.4 (L/P) 3POPC/1POPG Vesicle [9]
GLLDLLKLLLHAAG [DKH]	0.46 L/P	10.00 L/P	21.1 ± 3.01 µM	41 L/P	614 L/P	7.05 ± 0.21 µM	3.45 ± 0.07 µM	6.15 ± 1.34 µM	2.8 ± 0.28 µM	58 L/P	274 L/P
GLLDLLKLLLKAAG [DKK]	6.88 L/P	2.75 L/P	10.4 ± 1.7 µM	47 L/P	463 L/P	2.57 ± 0.52 µM	1.95 ± 0.35 µM	3.4 ± 0.28 µM	1.2 ± 0.14 µM	227 L/P	156 L/P
GLLELLHLLLKAAG [EHK]	0.42 L/P	0.56 L/P	25 µM	55 L/P	981 L/P	3.6 ± 0.99 µM	1.35 ± 0.35 µM	5.35 ± 0.07 µM	0.71 ± 0.13 µM	117 L/P	505 L/P
GLLELLKLLLEAAG [EKE]	1.63 L/P	2.75 L/P	8 ± 0.71 µM	75 L/P	738 L/P	8.8 µM	1.8 ± 0.28 µM	5.15 ± 0.21 µM	1.3 ± 0.14 µM	438 L/P	657 L/P
GLLELLKLLLHAAG [EKH]	0.19 L/P	0.75 L/P	23.8 ± 0.81 µM	55 L/P	608 L/P	7.9 ± 0.42 µM	2.75 ± 0.07 µM	6.65 ± 1.34 µM	2.18 ± 0.31 µM	88 L/P	365 L/P
GLLELLKLLLKAAG [EKK]	0.63 L/P	1.50 L/P	12.2 ± 1.84 µM	60 L/P	1095 L/P	1.7 ± 0.11 µM	1.72 ± 0.21 µM	3.35 ± 0.49 µM	1.19 ± 0.4 µM	219 L/P	235 L/P
GLLHLLELLLEAAG [HEE]	0.50 L/P	0.58 L/P	47.5 ± 11 µM	100 L/P	876 L/P	58 ± 41 µM	6.5 ± 0.71 µM	10.2 ± 0.2 µM	4.95 ± 0.49 µM	122 L/P	792 L/P
GLLHLLHLLLKAAG [HHK]	0.20 L/P	0.68 L/P	12.7 ± 1.91 µM	149 L/P	1133 L/P	5.6 ± 0.14 µM	3.15 ± 0.07 µM	5.25 ± 1.48 µM	1.75 ± 0.21 µM	111 L/P	160 L/P
GLLHLLKLLLEAAG [HKE]	0.25 L/P	0.75 L/P	16 ± 0.78 µM	173 L/P	692 L/P	7.6 ± 0.42 µM	2.7 ± 0.28 µM	5.15 ± 0.64 µM	1.9 ± 0.42 µM	94 L/P	365 L/P
GLLHLLKLLLHAAG [HKH]	0.38 L/P	0.18 L/P	18.9 ± 1.24 µM	193 L/P	1077 L/P	6.1 µM	3.45 ± 0.21 µM	5.7 ± 0.99 µM	3.1 ± 0.57 µM	47 L/P	274 L/P
